Test system: MN9D cells
Test: Dopamine content of MN9D cells in monolayer culture after incubation with protein (HPLC)
Assay type: cell-based, mouse
Description: […] The MN9D cells on each plate were then collected in 10 ml of CMF, transferred to 15 ml centrifuge tubes and centrifuged at 1000×g for 5 min. The supernatant was removed and 600 μl of 0.5 N perchloric acid was added to the cell pellet which was then sonicated on ice for 10-15 s. The cell extract was centrifuged at 4000×g for 30 min and the supernatant stored at −80° C. for subsequent high pressure liquid chromatography (HPLC) analysis of MN9D cell dopamine content. The pellet was stored at −20° C. for subsequent protein analysis.
A second experiment was then conducted to determine whether this effect was due to a change in the doubling time (24 h) of the MN9D cells with increased cell production or was the result of an increase in cellular dopamine. […] Cells were removed from the plates and cell numbers determined by counting in a hematocytometer. Dopamine content was determined by HPLC analysis. […]
After this period, the MN9D cells on each plate are collected in 10 ml of CMF, transferred to 15 ml centrifuge tubes and centrifuged at 1000×g for 5 min. […] MN9D cell DA content is determined by reverse phase high pressure liquid chromatography with electrochemical detection (HPLC-ED) as previously described (Heller et al., 1993). […]

Substance: insulin growth factor II [IGF-II]
- effect on MN9D DA levels: without effect
